# Measured values reported in patent US8748395B2, “Cell-permeable peptide inhibitors of the JNK signal transduction pathway” (Xigen Inflammation Ltd., priority 2006, dated 2014).
# Entries after “also recorded” stand apart in the source; their conditions may differ. Square brackets hold non-standard residues; d marks the D form. Peptide text beside a SMILES is read from it.
# Experiments:
# male ICR-CD1 mice = assay: Neuroprotection after iv administration against focal cerebral ischaemia, transient MCAO model; format: in vivo
# Method: Transient ischemia in adult mice. Using male ICR-CD1 mice (6 weeks old; 18-37 g; Harlan), we provoked ischemia by introducing a filament from the common carotid artery into the internal carotid and advancing it into the arterial circle, thereby occluding the middle cerebral artery. We measured regional cerebral blood flow by laser Doppler flowmetry, with a probe fixed on the skull throughout the ischemia until 10 min after reperfusion. Rectal temperature was measured and maintained at 37° C. The mice were killed 48 h after reperfusion. Serial cryostat sections 20 μm thick were traced using a computer-microscope system equipped with the Neurolucida program (MicroBrightField) and the volumes of the ischemic area and of the whole brain were calculated (blinded) with the Neuroexplorer program. XG-102 0.3=0.3 mg/kg, XG-102 1=1 mg/kg, XG-102 5=5 mg/kg
# The infarct volume sizes (mm^3) after bolus iv administration of placebo and XG-102 0.3, […] 6 hours after reperfusion (30 minutes clamp) in an adult mice model were as follows.
# guinea pigs = assay: Treatment of noise trauma, hearing threshold shifts by auditory brainstem response; format: in vivo
# Method: Changes of the hearing threshold level (dB sound pressure level) in guinea pigs following noise trauma (120 dB at 6 kHz during 30 minutes) at 8 kHz, the maximally impacted frequency, measured 20 minutes (temporary threshold shift, TTS, grey) and 15 days post noise exposure (permanent threshold shift). Guinea pigs received D-TAT-IB1(s) in a hyaluronic acid gel deposited onto the cochlear round window membrane either 30 minutes before, 30 minutes after or 4 hours after noise trauma; untreated ears served as control. TTS was measured 20 minutes post noise trauma, while PTS (black), which corresponds to permanent hearing loss, was determined after 15 days.
# D-TAT-IB1(s) was applied onto the round window membrane of the cochlea of 3 groups of guinea pigs (each group with 6 animals) in 2 microliters of a gel formulation of 2.6% buffered hyaluronic acid (Hylumed, Genzyme Corp.) at a concentration of 100 μM either 30 minutes before noise trauma (120 dB at 6 kHz during 30 minutes) or 30 minutes or 4 hours thereafter. Untreated ears served as control. Hearing threshold shifts were evaluated by auditory brainstem response measurements 20 minutes after noise trauma (temporary threshold shift, TTS) and 15 days following the trauma (permanent threshold shift, PTS). […] Thus, D-TAT-IB1(s) is a very effective otoprotective compound in case of noise trauma.
# [1] = system: cortical neuronal culture; assay: LDH release from cortical neuronal cultures following NMDA stimulation; format: cell-based, rat; settings: 5 μM peptide, 30 min pre-treatment, 12 h of 100 μM NMDA
# Method: The neuroprotective effect of the D-TAT-IB (generic)(s)/D-JNKI1 peptide (SEQ ID NO: 12) was evaluated in sister cultures pre-treated for 30 min with the indicated concentrations of peptides or MK-801 before continuous exposure to 100 μM NMDA.
# Cortical neuronal culture. We dissected small pieces of cortex from the brains of two day old rat pups, incubated them with 200 units of papain for 30 min at 34° C., and then plated the neurons at densities of approximately 1×10^6 cells/plate on dishes pre-coated with 100 μg/ml poly-D-lysine. The plating medium consisted of B27/Neurobasal (Life Technologies, Gaithersburg, Md.) supplemented with 0.5 mM glutamine, 100 U/ml penicillin and 100 ug/ml streptomycin.
# Lactate dehydrogenate (LDH) cytotoxicity assay. LDH released into the bathing medium 12, 24 and 48 h after NMDA administration was measured using the Cytotox 96 non- radioactive cytotoxicity assay kit (PROMEGA®, WI) (see FIG. 5).
# [2] = system: recombinant JNK1, JNK2 and JNK3; assay: Solid phase kinase assay: JNK-mediated phosphorylation of c-Jun, ATF2 and Elk1; format: biochemical; settings: GST-Jun (aa 1-73), 0-250 μM dosage study; fold less efficient
# Method: The effects of the peptides on JNKs-mediated phosphorylation of their target transcription factors were investigated in vitro. Recombinant and non activated JNK1, JNK2 and JNK3 were produced using a TRANSCRIPTION AND TRANSLATION rabbit reticulocyte lysate kit (PROMEGA®) and used in solid phase kinase assays with c-jun, ATF2 and Elk1, either alone or fused to glutathione-S-transferase (GST), as substrates. Dose response studies were performed wherein inventive L-TAT or L-TAT-IB1(s) peptides (0-25 μM) were mixed with the recombinant JNK1, JNK2, or JNK3 kinases in reaction buffer (20 mM Tris-acetate, 1 mM EGTA, 10 mM p-nitrophenyl-phosphate (pNPP), 5 mM sodium pyrophosphate, 10 mM p-glycerophosphate, 1 mM dithiothreitol) for 20 minutes. The kinase reactions were then initiated by the addition of 10 mM MgCl2 and 5 pCi^33P-γ-dATP and 1 μg of either GST-Jun (aa 1-89), GST-AFT2 (aa 1-96) or GST-ELK1 (aa 307-428). GST-fusion proteins were purchased from Stratagene (La Jolla, Calif.).
# Ten μL of glutathione-agarose beads were also added to the mixture. Reaction products were then separated by SDS-PAGE on a denaturing 10% polyacrylamide gel. Gels were dried and subsequently exposed to X-ray films (Kodak).
# The ability of D-TAT, inventive D-TAT-IB1(s) and inventive L-TAT-IB1 (s) peptides (0-250 μM dosage study) to inhibit GST-Jun (aa 1-73) phosphorylation by recombinant JNK1, JNK2, and JNK3 by were analyzed as described above. Overall, D-TAT-IB1(s) peptide decreased JNK-mediated phosphorylation of c-Jun, but at levels approximately 10-20 fold less efficiently than L-TAT-IB1(s).
# WiDr cells = assay: Irradiation (30 Gy) induced apoptosis of WiDr cells; format: cell-based, human; settings: 1 μM added 30 minutes before 30 Gy, analyzed 48 hours later
# Method: JNK is also activated by ionizing radiation. To determine whether inventive TAT-IB(s) peptides would provide protection against radiation-induced JNK damage, “WiDr” cells were irradiated (30 Gy) in presence or absence of D-TAT, inventive L-TAT-IB1(s) or inventive D-TAT-IB1(s) peptides (1 μM added 30 minutes before irradiation). Control cells (CTRL) were not irradiated. Cells were analyzed 48 hours later by means of PI and Hoechst 3342 staining, as described above. N=3, SEM are indicated.
structure (smiles),measurement,setting,value
CC(C)C[C@@H](NC(=O)[C@@H](Cc1ccccc1)NC(=O)[C@H]1CCCN1C(=O)[C@@H](CCC(N)=O)NC(=O)[C@H](NC(=O)[C@H]1CCCN1C(=O)[C@@H](CCCNC(=N)N)NC(=O)[C@@H](CO)NC(=O)[C@@H](CCC(N)=O)NC(=O)[C@H](N)CC(=O)O)C(C)C)C(=O)N[C@H](CC(N)=O)C(=O)N[C@H](CC(C)C)C(=O)N[C@@H](C(=O)N[C@@H](C(=O)N1CCC[C@@H]1C(=O)N[C@H](CCCNC(=N)N)C(=O)N[C@H](CCCCN)C(=O)N1CCC[C@@H]1C(=O)N[C@H](CCCNC(=N)N)C(=O)N1CCC[C@@H]1C(=O)N1CCC[C@@H]1C(=O)N[C@H](CCCNC(=N)N)C(=O)N[C@H](CCCNC(=N)N)C(=O)N[C@H](CCCNC(=N)N)C(=O)N[C@H](CCC(N)=O)C(=O)N[C@H](CCCNC(=N)N)C(=O)N[C@H](CCCNC(=N)N)C(=O)N[C@H](CCCCN)C(=O)N[C@H](CCCCN)C(=O)N[C@H](CCCNC(=N)N)C(=O)NCC(=O)O)[C@H](C)O)[C@H](C)O [D-TAT-IB1(s)] (H-[dD][dQ][dS][dR][dP][dV][dQ][dP][dF][dL][dN][dL][dT][dT][dP][dR][dK][dP][dR][dP][dP][dR][dR][dR][dQ][dR][dR][dK][dK][dR]G-OH),"infarct volume sizes, moyenne","male ICR-CD1 mice; 0.3 mg/kg bolus iv 6 hours after reperfusion (30 minutes clamp), n = 5",16 mm^3
same,"infarct volume sizes, moyenne","male ICR-CD1 mice; 1 mg/kg bolus iv 6 hours after reperfusion (30 minutes clamp), n = 1",16 mm^3
same,"infarct volume sizes, moyenne","male ICR-CD1 mice; XG102 3, bolus iv 6 hours after reperfusion (30 minutes clamp), n = 5",15 mm^3
same,neuroprotection,"male ICR-CD1 mice; i.v. administration, mice killed 48 h after reperfusion",provides efficient neuroprotection
same,"protection against permanent hearing loss (PTS, 15 days)","guinea pigs; 100 μM in hyaluronic acid gel on round window membrane, 30 minutes before, 30 minutes or 4 hours after noise trauma",protects substantially against permanent hearing loss; also recorded: protected against permanent hearing loss even if applied after exposure to excessive noise
same,PTS in treated ears versus untreated control ears,"guinea pigs; administration 30 minutes and 4 hours post trauma, 8 kHz",significantly lower
same,degenerative changes due to NMDA exposure (LDH release above controls),[1],degenerative changes due to NMDA exposure were completely inhibited
same,"decrease of JNK-mediated phosphorylation of c-Jun, efficiency relative to L-TAT-IB1(s)",[2],10-20 fold
same,prevention of irradiation induced apoptosis,WiDr cells,able to prevent irradiation induced apoptosis
